The term IC50 denotes the point on the concentration scale where inhibition reaches its midpoint. By EC50 is commonly meant the concentration giving half of the maximal effect.

The results in this text go back to patent US11002728B2, “Method for evaluating activity of G protein-coupled receptor (GPCR)” (RIKEN, priority 2017, dated 2021).

For assay [1], the target named is T1, FFAR4 (Homo sapiens, UniProt Q5NUL3).
T1 construct: host or cells: HEK293
T1 sequence (Q5NUL3 1-361): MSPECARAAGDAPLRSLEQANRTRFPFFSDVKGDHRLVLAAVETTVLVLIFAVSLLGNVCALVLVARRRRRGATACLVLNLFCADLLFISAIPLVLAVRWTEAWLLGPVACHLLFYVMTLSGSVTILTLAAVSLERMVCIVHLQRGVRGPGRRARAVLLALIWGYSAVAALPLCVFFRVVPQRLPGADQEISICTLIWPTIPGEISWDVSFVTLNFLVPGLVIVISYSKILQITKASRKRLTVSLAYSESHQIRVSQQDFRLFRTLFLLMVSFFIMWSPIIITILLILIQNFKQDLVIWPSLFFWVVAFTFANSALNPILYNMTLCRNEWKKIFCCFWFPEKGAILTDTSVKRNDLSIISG
Description: Single-molecule imaging of GPCR diffusive dynamics (DAv) in HEK293 cells. Format: cell-based. The note with it: 100 nM ligand, mean ± standard error, n=20 cells, vehicle 0.083.
Description: (§1) HEK293 cells were cultured in a DMEM/F12 (Gibco) medium added with 15 mM HEPES (pH 7.3), 29 mM NaHCO3, and 10% FBS at 37° C. in an environment containing 5% CO2. On the day before the observation, the HEK293 cells on a 60-mm dish (IWAKI) with a cover glass (Matsunami Glass Ind., Ltd.) were transfected with a plasmid DNA (pDNA) of HaloTag-fused mGluR3 using Lipofectamine 3000 (Invitrogen). A transfection reagent and pDNA (pDNA (0.1 μg), P3000 reagent (0.2 μL), Lipofectamine 3000 reagent (2.5 μL), Opti-MEM (120 μL, Gibco)) were mixed, and the mixture was then left to stand at room temperature for 15 minutes and was added to HEK293 cells on the 60-mm dish containing DMEM/F12 (3 mL). […] After culturing at 37° C. in an environment containing 5% CO2 for 3 hours, the medium was replaced with DMEM (3 mL, Sigma) not containing phenol red and containing 10% FBS. […] TMR-labeled mGluR3 on the cell membranes of the HEK293 cells were excited with total internal reflection illumination on an inverted fluorescence microscope (TE2000, Nikon Corporation), and single-molecule imaging was performed. […]

The target of assay [2] is T2, mGluR3 (Mus musculus, UniProt Q9QYS2). Description: Two-color single-molecule imaging, colocalization of TMR-labeled mGluR3 and GFP-labeled CLC. The format is cell-based. The arrangement: expressed in transfected cells; host or cells: HEK293 (pCAG-GS vector). The conditions noted are these: active (100 μM LY379268) versus inactive state (100 nM LY341495). From the text:
Colocalization of TMR-labeled mGluR3 and GFP-labeled CLC was defined as a track in which each bright spot was within 100 nm in the same frame. The positional accuracy of the bright spot tracking of TMR-labeled mGluR3 and GFP-labeled CLC was estimated to be 28 nm and 31 nm, respectively, from measurement of fixed samples. These values correspond to 1 SD of the displacement when fixed molecules were tracked. After image processing, the error between the positions of the same gold particle in two channels was estimated to be 18 nm. Accordingly, 100 nm corresponds to about 2 SD of the positional accuracy considering the total error. The time constant of colocalization was calculated by fitting the cumulative frequency distribution (FIG. 9(f)) by Expression 8.
The proportion of each component was calculated from the proportions of A1 and A2.

Assay [3] concerns the target T2, mGluR3. As to the kind of experiment: [3H]-LY341495 binding experiment, HEK293 membrane fraction expressing mGluR3.
Description: HEK293 cells cultured to about 40% confluence in a 100-mm dish were transfected with mGluR3 pDNA and an empty pCAG vector as a mock each at 10 μg/dish by a calcium phosphate method. After the transfection, the cells were cultured in DMEM/F12 medium containing 10% FBS for 48 hours and were then collected, followed by centrifugation. The precipitation was washed with 1 mL of PBS (pH 7.4). Centrifugation was further performed. The precipitation was placed in a 1.5-mL tube and was homogenized with a pellet mixer in buffer A (50 mM HEPES (pH 6.5), 140 mM NaCl) in which 50% sucrose was dissolved, followed by centrifugation to separate supernatant and precipitate. […]
A cell membrane fraction containing mGluR3 was resuspended in HBSS (containing 15 mM HEPES (pH 7.1) and not containing NaHCO3, Sigma) having the same composition as that used in the single-molecule measurement, and the binding of [^3H]-LY341495 to the membrane was measured at room temperature. […] Each dot was excised from the nitrocellulose membrane and was placed in a cocktail for a liquid scintillation counter (Ultima Gold, PerkinElmer Life Sciences, Inc.), and the binding amount of [^3H]-LY341495 was quantified with LS6500 (Beckman Coulter). […] Kd was calculated from fitting result by an expression obtained by replacing the EC50 in Expression 3 mentioned above with kd. […] The IC50 was calculated based on Expression 4.
The target of assay [4] is T2, mGluR3. Description: Single-molecule imaging of mGluR3 diffusive dynamics (MSD, DAv, VB-HMM diffusion states) in HEK293 cells. The conditions noted are these: for IC50: IC50 of the LY379268 dependent change of DAv; for change of MSD of mGluR3: MSD-Δt plots, FIG. 1(c to e).
Description: A DNA sequence encoding HaloTag7 (Promega Corporation) was amplified by PCR and was fused to the C-terminal sequence of mouse mGluR3 using In-Fusion HD Cloning Kit (Clontech Laboratories, Inc.). In order to quantify the expression level of HaloTag-fused mGluR3 by Western blotting, the epitope sequence of a monoclonal antibody Rho 1D4 recognizing the C-terminus of bovine rhodopsin was added immediately after the HaloTag sequence. Complementary DNAs of mGluR3 were inserted into a pCAG-GS vector^21.
HEK293 cells were cultured in a DMEM/F12 (Gibco) medium added with 15 mM HEPES (pH 7.3), 29 mM NaHCO3, and 10% FBS at 37° C. in an environment containing 5% CO2. On the day before the observation, the HEK293 cells on a 60-mm dish (IWAKI) with a cover glass (Matsunami Glass Ind., Ltd.) were transfected with a plasmid DNA (pDNA) of HaloTag-fused mGluR3 using Lipofectamine 3000 (Invitrogen). A transfection reagent and pDNA (pDNA (0.1 μg), P3000 reagent (0.2 μL), Lipofectamine 3000 reagent (2.5 μL), Opti-MEM (120 μL, Gibco)) were mixed, and the mixture was then left to stand at room temperature for 15 minutes and was added to HEK293 cells on the 60-mm dish containing DMEM/F12 (3 mL). In two-color single-molecule measurement, pDNA (0.02 μg) of GFP-fused CLC was transfected together with HaloTag-fused mGluR3. After culturing at 37° C. in an environment containing 5% CO2 for 3 hours, the medium was replaced with DMEM (3 mL, Sigma) not containing phenol red and containing 10% FBS. After culturing overnight, the medium was replaced with 3 mL of DMEM containing 300 nM HaloTag TMR ligand (Promega Corporation) and not containing phenol red and FBS, followed by being left to stand at 37° C. in an environment containing 5% CO2 for 30 minutes to specifically stain the HaloTag-fused mGluR3 of the HEK293 cells. […] In single-molecule imaging, the cover glass was placed in a metal chamber (Invitrogen) and was washed with 400 μL of Hanks' balanced salt solution (HBSS (Sigma); containing 15 mM HPEPS (pH 7.1) and not containing NaHCO3) five times, followed by observation at room temperature (25° C.). TMR-labeled mGluR3 on the cell membranes of the HEK293 cells were excited with total internal reflection illumination on an inverted fluorescence microscope (TE2000, Nikon Corporation), and single-molecule imaging was performed. […] The fluorescences of TMR and GFP were wavelength dependently separated with dichroic mirror 59004b (Chroma) in a two-optical path branching system (M202J, Nikon Corporation), were allowed to pass through a band pass filter (GFP: ET525/50m, TMR: ET605/70m, Chroma), and were then photographed simultaneously by two EM-CCD cameras (ImagEM, Hamamatsu Photonics K.K.).
Assay [5] has as its target T2, mGluR3. Description: [35S]-GTPγS binding experiment (G protein activation ability of mGluR3, purified Go protein). Format: biochemical. The arrangement: expressed in transfected cells; host or cells: HEK293 (pCAG-GS vector). On the technique in general: GTPγS resists hydrolysis and so accumulates on activated G proteins.
Description: Each mixture was left to stand at 20° C. for 30 minutes. [^35S]-GTPγS was added to the mixture to start GDP/GTPγS exchange reaction. The composition except the ligand of the final mixture solution (20 μL) was 50 mM HEPES (pH 6.5), 140 mM NaCl, 5 mM MgCl2, 0.01% DM, 0.03% sodium cholate, 5 nM [^35S]-GTPγS, 500 nM GTPγS (cold), and 500 nM GDP. A reaction stop solution (200 μL, 20 mM Tris/Cl (pH 7.4), 100 mM NaCl, 25 mM MgCl2, 500 nM GTPγS (cold), and 500 nM GDP) was added to the mixture solution at 30 seconds after the addition of [^35S]-GTPγS to stop the incorporation of [^35S]-GTPγS into G protein, and immediately all the reaction solution was passed through a nitrocellulose membrane with the dot-blot apparatus to separate [^35S]-GTPγS bound to G protein. Subsequently, the nitrocellulose membrane was washed with buffer C (200 μL, 20 mM Tris/Cl (pH 7.4), 100 mM NaCl, and 25 mM MgCl2) three times and was dried for 1 hour. Each dot was excised from the nitrocellulose membrane and was placed in a cocktail for a liquid scintillation counter (Ultima Gold, PerkinElmer Life Sciences, Inc.), and the binding amount of [^35S]-GTPγS was quantified with LS6500 (Beckman Coulter).
Assay [6] addresses HRH1 (Homo sapiens, UniProt P35367). The note with it: HRH1 in HEK293 cells, 1 μM ligand, mean ± standard error, n=20 cells; vehicle 0.064.
Assay [7] has as its target HTR2A (Homo sapiens, UniProt P28223). As to the kind of experiment: Single-molecule imaging of GPCR diffusive dynamics (DAv) in HEK293 cells. Format: cell-based. The note with it: 10 μM ligand, mean ± standard error, n=20 cells, vehicle 0.079.
In assay [8] the target is T3, CXCR4 (Homo sapiens, UniProt P61073).
T3 construct: host or cells: HEK293
T3 sequence (P61073 whole entry): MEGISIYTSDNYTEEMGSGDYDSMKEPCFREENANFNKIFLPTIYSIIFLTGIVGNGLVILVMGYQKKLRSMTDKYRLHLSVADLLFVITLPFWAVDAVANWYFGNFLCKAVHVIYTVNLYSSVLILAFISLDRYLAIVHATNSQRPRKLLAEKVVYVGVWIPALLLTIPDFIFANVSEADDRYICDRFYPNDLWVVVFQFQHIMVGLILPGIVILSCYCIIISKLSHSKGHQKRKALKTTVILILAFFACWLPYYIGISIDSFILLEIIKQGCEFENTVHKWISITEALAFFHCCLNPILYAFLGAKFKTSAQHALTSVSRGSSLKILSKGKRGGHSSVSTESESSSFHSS
The description is as above. The note with it: 20 nM ligand, mean ± standard error, n=20 cells, vehicle 0.087. The format is cell-based.
Description: as §1

Assay [9] addresses F2R (Homo sapiens, UniProt P25116). The note with it: F2R in HEK293 cells, 10 μM ligand, mean ± standard error, n=20 cells; vehicle 0.084.

T2 sequence (Q9QYS2 23-879): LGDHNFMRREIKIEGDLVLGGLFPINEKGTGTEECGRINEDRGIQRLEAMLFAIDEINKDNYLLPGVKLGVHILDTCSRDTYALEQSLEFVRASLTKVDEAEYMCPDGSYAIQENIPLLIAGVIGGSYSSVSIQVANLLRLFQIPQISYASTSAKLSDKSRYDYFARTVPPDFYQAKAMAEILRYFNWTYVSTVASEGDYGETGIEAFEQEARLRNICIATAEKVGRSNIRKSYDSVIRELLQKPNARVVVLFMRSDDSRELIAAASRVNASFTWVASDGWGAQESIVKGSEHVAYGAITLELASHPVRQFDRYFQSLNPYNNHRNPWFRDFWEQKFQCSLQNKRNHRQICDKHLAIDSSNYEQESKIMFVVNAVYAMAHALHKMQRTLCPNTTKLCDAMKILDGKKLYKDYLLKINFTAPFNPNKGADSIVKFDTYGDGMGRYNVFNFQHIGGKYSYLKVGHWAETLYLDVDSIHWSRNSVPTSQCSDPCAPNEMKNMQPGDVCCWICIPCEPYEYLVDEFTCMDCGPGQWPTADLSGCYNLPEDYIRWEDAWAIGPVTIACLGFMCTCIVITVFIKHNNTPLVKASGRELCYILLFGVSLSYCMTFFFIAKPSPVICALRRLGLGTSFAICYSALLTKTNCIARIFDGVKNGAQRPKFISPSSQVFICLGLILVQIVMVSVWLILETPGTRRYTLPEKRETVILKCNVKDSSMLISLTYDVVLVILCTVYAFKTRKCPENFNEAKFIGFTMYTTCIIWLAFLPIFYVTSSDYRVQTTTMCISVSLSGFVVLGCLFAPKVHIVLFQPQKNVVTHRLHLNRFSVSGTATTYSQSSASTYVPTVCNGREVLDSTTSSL
Chain of HRH1 (P35367 whole entry): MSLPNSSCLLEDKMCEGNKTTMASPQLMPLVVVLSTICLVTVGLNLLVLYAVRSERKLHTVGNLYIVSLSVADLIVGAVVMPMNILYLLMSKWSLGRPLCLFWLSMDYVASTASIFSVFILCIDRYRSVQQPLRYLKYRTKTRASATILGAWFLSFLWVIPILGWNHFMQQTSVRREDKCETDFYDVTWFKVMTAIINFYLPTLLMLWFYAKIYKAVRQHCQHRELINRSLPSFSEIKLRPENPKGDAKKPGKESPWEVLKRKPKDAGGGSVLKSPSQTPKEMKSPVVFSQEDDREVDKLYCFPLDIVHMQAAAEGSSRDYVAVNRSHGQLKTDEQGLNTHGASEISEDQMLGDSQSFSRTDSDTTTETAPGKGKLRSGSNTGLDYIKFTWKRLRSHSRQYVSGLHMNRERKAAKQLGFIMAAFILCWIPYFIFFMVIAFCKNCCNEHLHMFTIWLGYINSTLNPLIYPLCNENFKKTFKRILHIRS
Chain of F2R (P25116 22-425): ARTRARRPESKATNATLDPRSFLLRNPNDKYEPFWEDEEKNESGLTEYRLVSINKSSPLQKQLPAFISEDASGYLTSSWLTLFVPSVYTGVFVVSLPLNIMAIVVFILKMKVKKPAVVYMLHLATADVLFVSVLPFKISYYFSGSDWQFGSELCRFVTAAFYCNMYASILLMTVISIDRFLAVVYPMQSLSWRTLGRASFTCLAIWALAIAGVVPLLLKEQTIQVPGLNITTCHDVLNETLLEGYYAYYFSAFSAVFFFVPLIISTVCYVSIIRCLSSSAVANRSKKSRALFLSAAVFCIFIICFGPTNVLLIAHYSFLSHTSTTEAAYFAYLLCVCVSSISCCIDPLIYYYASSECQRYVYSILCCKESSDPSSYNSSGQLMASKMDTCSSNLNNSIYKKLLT
Chain of HTR2A (P28223 whole entry): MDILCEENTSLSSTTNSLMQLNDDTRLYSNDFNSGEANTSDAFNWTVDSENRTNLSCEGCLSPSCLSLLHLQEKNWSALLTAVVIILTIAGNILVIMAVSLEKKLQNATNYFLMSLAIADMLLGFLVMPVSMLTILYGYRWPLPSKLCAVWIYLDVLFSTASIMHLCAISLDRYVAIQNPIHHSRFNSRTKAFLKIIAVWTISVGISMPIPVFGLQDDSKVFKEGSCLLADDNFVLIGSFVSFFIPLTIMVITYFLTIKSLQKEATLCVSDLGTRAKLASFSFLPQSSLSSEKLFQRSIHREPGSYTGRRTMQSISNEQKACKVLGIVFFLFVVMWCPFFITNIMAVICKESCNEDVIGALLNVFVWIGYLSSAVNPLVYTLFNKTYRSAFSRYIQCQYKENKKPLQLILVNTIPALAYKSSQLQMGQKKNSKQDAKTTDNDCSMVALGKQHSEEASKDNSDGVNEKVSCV

Regarding `CC/C=C\C/C=C\C/C=C\C/C=C\C/C=C\C/C=C\CCC(=O)O` [DHA], in [1], the “DAv, Ligand” value was 0.048 ± 0.0073 μm^2/s.
In the case of `N[C@@]1(C(=O)O)CO[C@H]2[C@H](C(=O)O)[C@H]21` [LY379268], the “increase in the colocalization probability of mGluR3 and CLC” value in assay [2] (FIG. 10(e)) is “about 1.6 fold”. In addition, the “increase of the Long-time constant of colocalization of mGluR3 and CLC” value in [2] (FIG. 10(g)) was “about two-fold”. Also, the IC50 in assay [3] came out at 550 ± 80 nM; in [4] (FIG. 4(a), absence of other ligands, n=20 cells) it was 1190 ± 20 nM; in [4] (FIG. 4(b), presence of 100 nM LY341495, n=20 cells) it was 1030 ± 80 nM. The “change of MSD of mGluR3” value in assay [4] (n=20 cells) is on record as “decreased depending on the concentration”. For the same compound, the “ligand-dependent change of the proportions of the diffusion states (VB-HMM)” value in assay [4] (concentration dependent, FIG. 5(c, d)) was “increases in the immobile and slow states and a decrease in the fast state”. In assay [4] (mGluR3 in HEK293 cells, 100 μM ligand, mean ± standard error, n=20 cells, vehicle 0.047), the “DAv, Ligand” value worked out at 0.039 ± 0.0018 μm^2/s. For the same compound, the EC50 in assay [5] (absence of other ligands, FIG. 4(e), n=3, read-out: EC50 of the LY379268-dependent increase of the G protein activation ability of mGluR3) amounted to 25 ± 2.9 nM.
Consider `NCCc1c[nH]cn1` [histamine], for which, in [6], the “DAv, Ligand” value amounted to 0.045 ± 0.0025 μm^2/s.
Take `NCCc1c[nH]c2ccc(O)cc12` [serotonine]: the “DAv, Ligand” value in [7] stood at 0.065 ± 0.0034 μm^2/s.
“CXCL12: chemokine, agonist used on CXCR4”: the “DAv, Ligand” value in assay [8] was determined as 0.068 ± 0.0017 μm^2/s.
For MNI137, the “influence on the binding affinity of LY379268” value in assay [3] (1 μM MNI137, competition with 100 nM [3H]-LY341495, FIG. 4(d)) is “did not influence the binding affinity of LY379268”. Also, the “effect on LY379268 concentration-dependent change of DAv” value in assay [4] (1 μM, presence of 100 nM LY341495, FIG. 4(b)) is “the LY379268 concentration-dependent decrease of DAv was suppressed”. For the same compound, in assay [4] (n=20 cells), the “change of MSD of mGluR3” value is reported as “the LY379268-dependent decrease of the MSD was suppressed”. Further, the “effect on LY379268-dependent G protein activation ability” value in [5] (1 μM MNI137, 100 nM LY341495 present, FIG. 4(f)) is given as “suppresses the LY379268-dependent increase of G protein activation ability”.
TRAP-6: in assay [9], the “DAv, Ligand” value was 0.060 ± 0.0017 μm^2/s.
